What was measured:
[1] = Drug degradation assessed as metabolite formation by LC-MS/MS analysis; type: physicochemical
[2] = Drug uptake in CD-1 mouse cerebral spinal fluid; type: ADME, Cerebrospinal fluid; conditions: in vivo
[3] = test system: Brain; assay: Drug uptake in CD-1 mouse brain; type: ADME, tissue-based; conditions: in vivo
[4] = test system: P-gp; assay: Efflux ratio in MDCK cells overexpressing Pgp; type: ADME, cell-based, Canis lupus familiaris; conditions: dog, MDCK-MDR1
[5] = Oral bioavailability in dog; type: ADME, organism-based, Canis lupus familiaris; conditions: in vivo
[6] = Oral bioavailability in rat; type: ADME, organism-based; conditions: in vivo
[7] = Blood clearance in iv dosed dog; type: ADME, organism-based, Canis lupus familiaris
[8] = Blood clearance in iv dosed rat; type: ADME, organism-based
[9] = Half life in human hepatocytes; type: ADME, cell-based, Hepatocyte
[10] = Half life in human liver microsomes; type: ADME
[11] = target: T1, Kynurenine/alpha-aminoadipate aminotransferase, mitochondrial (Homo sapiens, UniProt Q8N5Z0); assay: Ratio of Kinact to Ki for KAT2 (unknown origin)
Target sequence in this assay (Q8N5Z0 30-425 limits assumed): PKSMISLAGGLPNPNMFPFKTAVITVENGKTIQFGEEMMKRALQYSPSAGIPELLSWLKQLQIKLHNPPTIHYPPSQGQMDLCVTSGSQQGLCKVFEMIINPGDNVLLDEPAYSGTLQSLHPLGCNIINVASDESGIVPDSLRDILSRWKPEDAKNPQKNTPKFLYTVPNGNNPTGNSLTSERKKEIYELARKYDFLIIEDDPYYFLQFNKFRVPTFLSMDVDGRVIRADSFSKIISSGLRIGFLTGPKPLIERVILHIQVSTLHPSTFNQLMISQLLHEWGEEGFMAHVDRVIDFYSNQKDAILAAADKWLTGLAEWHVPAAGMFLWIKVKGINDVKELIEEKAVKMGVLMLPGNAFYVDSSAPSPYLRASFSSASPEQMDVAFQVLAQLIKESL

[12] = target: T1, Kynurenine/alpha-aminoadipate aminotransferase, mitochondrial; assay: Inhibition of KAT2 (unknown origin)

SMILES	Retention_time [1] [min]	Drug uptake [2]	Drug uptake [3]	efflux ratio [4]	bioavailability [5] [%]	bioavailability [6] [%]	clearance [7] [mL/min/kg]	clearance [8] [mL/min/kg]	half-life [9] [h]	half-life [10] [h]	Ratio [11] [M⁻¹ s⁻¹]	IC50 [12] [nM]	Ki [12] [nM]	Kinact [12] [min⁻¹]
COc1cccc(Oc2ccc3c(c2)CC(N)c2n[nH]c(=O)n2-3)c1 (stereo not given)	31.8	Active	Active	1.51	100	40	4.5	78.4	1.9	> 1.73	5060	65	5.1	0.0155
COc1cccc(Oc2ccc3c(c2)CC(N)c2nncn2-3)c1 (stereo not given)	–	–	–	–	–	–	–	–	–	–	2920	201	81.5	0.0141
N[C@H]1Cc2ccccc2N(O)C1=O	–	–	–	–	18.5	10.8	–	–	–	–	–	–	–	–

Source: ChEMBL document CHEMBL3217643, “Discovery of hydroxamate bioisosteres as KAT II inhibitors with improved oral bioavailability and pharmacokinetics” (Medchemcomm, 2013)
